Laboratory results as given in patent publication US6344457B1, “Amino acid derivatives inhibiting extracellular matrix metalloproteinase and TNF alpha release” (Chiesi Farmaceutici S.p.A., priority 1997, dated 2002).
Read-outs that look alike come from different tables or passages of the source.

Columns and labels:
[1] = tested on: release of TNF from the peritoneal macrophages of mice stimulated by LPS; test: Inhibition of the production of TNF in vitro; type: cell-based; conditions: Peritoneal macrophage; mouse peritoneal macrophages, LPS 100 ng/ml; read-out: C150 (μM) TNF
Method: The capacity of the compounds according to this invention to inhibit the release of TNF was determined from the peritoneal macrophages of mice stimulated by LPS (Lang, F., Robert, […], Petit, J. Y., J. Pharmacol. Exp. Ther., 275, 171-176, 1995). After an adhesion phase of 2 hours, the cells were treated for 1 hour with the compound to be tested at concentrations ranging between 10^-6 to 10^-9 M (the inhibitor is dissolved in DMSO at 10^-2 M, then at 5.10^-3 M in RPMI 1640 with 5% SVF, then diluted successively by tenths in the same medium), then stimulated by the addition of LPS (100 ng/ml in final concentration). Three hours later, the biological activity of the TNF in the supernatants was determined by a cytotoxicity test using the murine stock L929 in accordance with the operating procedure described by Band, G., Lin, […]., Evans, C. H. (Bioch. Biophys. Acta, 1134, 309-318, 1982). The pg/ml concentration of the TNF of the samples was determined from a murine αTNF standard curve, thus making it possible to define the inhibiting concentration […] of the compounds studied.

[2] = target: T1, collagenase of the human monocytic stock U937 (Homo sapiens, UniProt P03956); test: Activity on collagenase; type: biochemical; conditions: radiomarked collagen, 27° C., 16 hours; read-out: C150 (nM) collagenase
T1 construct: the collagenase of the human monocytic stock U937; endogenous in cells; host or cells: U937 human monocytic cell line
T1 sequence (P03956 100-469): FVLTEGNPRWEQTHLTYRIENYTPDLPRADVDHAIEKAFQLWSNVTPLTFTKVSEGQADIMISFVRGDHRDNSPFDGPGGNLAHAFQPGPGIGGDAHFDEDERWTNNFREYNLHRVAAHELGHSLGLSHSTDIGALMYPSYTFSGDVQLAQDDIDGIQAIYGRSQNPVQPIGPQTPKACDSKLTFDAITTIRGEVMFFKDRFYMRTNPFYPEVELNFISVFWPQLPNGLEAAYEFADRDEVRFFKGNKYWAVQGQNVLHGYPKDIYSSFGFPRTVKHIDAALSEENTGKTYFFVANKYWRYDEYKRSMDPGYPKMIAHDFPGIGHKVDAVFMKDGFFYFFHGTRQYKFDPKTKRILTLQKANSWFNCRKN
Method: The collagenase was incubated at 27° C. for 16 hours with radiomarked collagen, and its activity was determined by the release of soluble peptides produced by the enzymatic breakdown of the collagen. The inhibiting concentration C150 for each compound was determined by measurement of the activity of the enzyme in the presence of the inhibitor at a concentration ranging between 10^−7 and 10^−12 M (the inhibitor is dissolved at a concentration of 10^−2 M in DMSO, then diluted successively by tenths in the buffer: Tris, HCl 150 mM, pH 7.5; NaCl 0.15 M; CaCl2 10 mM).

[3] = target: 92 kDa gelatinase of human origin (Homo sapiens, UniProt P14780); test: Activity on gelatinase, radiomarked gelatin; type: biochemical; conditions: test performed with radiomarked gelatin; read-out: C150 (nM) gelatinase 92 kDa*
Method: The anti-gelatinase activity of the compounds according to the invention also was determined on 92 kDa or 72 kDa gelatinase of human origin, in accordance with the operating mode described by Harris, E. D., Krane, S. M.; (Biochem. Biophys. Acta, 258, 566-576, 1972).
The gelatinase was incubated at 37° C. for 16 hours with radiomarked gelatin, and its activity was determined by the release of the soluble peptides produced by the enzymatic breakdown of the gelatin. The inhibiting concentration C150 for each compound was determined by measurement of the activity of the enzyme in the presence of the inhibitor at a concentration ranging between 10^−7 and 10^−12 M (the inhibitor is dissolved in the same manner as for collagenase).

[4] = Determination of bioavailability (blood levels, ex-vivo bioassay); type: in vivo; conditions: mice
Method: The compounds of this invention were administered i.p. or p.o. between 1 and 50 mg/kg to mice: the blood levels then were determined by an ex-vivo bioassay according to Wang X. et al. (Cancer Res., 54, 4726-4728, 1994). The introduction of an OH group systematically increases the bioavailability of the products.

[5] = mouse, blood, ip, 50 mg/kg, 50 mg/kg i.p., read-out: blood level, I.p. method, 10′
[6] = mouse, blood, ip, 50 mg/kg, 50 mg/kg i.p., read-out: blood level, I.p. method, 20′
[7] = mouse, blood, ip, 50 mg/kg, 50 mg/kg i.p., read-out: blood level, I.p. method, 40′
[8] = mouse, blood, po, 50 mg/kg, 50 mg/kg p.o., read-out: blood level, P.o. method, 10′
[9] = mouse, blood, po, 50 mg/kg, 50 mg/kg p.o., read-out: blood level, P.o. method, 20′
[10] = mouse, blood, po, 50 mg/kg, 50 mg/kg p.o., read-out: blood level, P.o. method, 1 h
[11] = mouse, blood, po, 50 mg/kg, 50 mg/kg p.o., read-out: blood level, P.o. method, 24 h
[12] = mouse, blood, po, 50 mg/kg, 50 mg/kg p.o., read-out: blood level, P.o. method, 40′
[13] = mouse, blood, ip, 50 mg/kg, 50 mg/kg i.p., read-out: blood level, I.p. method, 1 h
[14] = mouse, blood, ip, 50 mg/kg, 50 mg/kg i.p., read-out: blood level, I.p. method, 24 h

Sequence of 92 kDa gelatinase of human origin (P14780 94-707): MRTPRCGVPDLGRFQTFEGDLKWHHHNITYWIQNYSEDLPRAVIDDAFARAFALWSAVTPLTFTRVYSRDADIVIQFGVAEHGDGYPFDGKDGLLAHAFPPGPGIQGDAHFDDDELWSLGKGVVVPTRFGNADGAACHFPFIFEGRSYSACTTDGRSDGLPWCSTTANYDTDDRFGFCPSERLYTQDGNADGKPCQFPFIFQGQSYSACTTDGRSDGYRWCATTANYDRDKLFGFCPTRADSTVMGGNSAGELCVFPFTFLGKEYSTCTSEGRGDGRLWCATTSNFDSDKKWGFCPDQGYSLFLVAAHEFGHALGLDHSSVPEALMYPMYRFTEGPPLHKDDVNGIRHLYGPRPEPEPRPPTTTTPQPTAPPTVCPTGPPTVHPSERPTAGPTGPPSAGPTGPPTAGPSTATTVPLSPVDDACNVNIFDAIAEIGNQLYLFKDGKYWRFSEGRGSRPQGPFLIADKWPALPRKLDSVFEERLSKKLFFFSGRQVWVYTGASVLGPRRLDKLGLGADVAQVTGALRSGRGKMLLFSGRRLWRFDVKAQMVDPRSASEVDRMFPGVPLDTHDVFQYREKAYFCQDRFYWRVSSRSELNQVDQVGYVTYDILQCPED

CNC(=O)[C@@H](NC(=O)[C@H](CC(C)C)[C@H](O)C(=O)NO)C(C)(C)C [reference compound]
IC50 [1]: 0.14 µM

CC(C)C[C@@](O)(C(=O)N[C@@H](Cc1ccc(Cl)cc1)C(=O)NCC/C(N)=N/O)[C@H](C)C(=O)NO [Example 28, N-2(S)[1(S) hydroxycarbamoyl-1 ethyl]-2(S)hydroxy-4-methylpentanoyl L-4-chlorophenylalanine N-oximino-2-amino-2-ethylamide]
IC50 [2]: 26 nM
IC50 [3]: 1.6 nM

CNC(=O)[C@H](Cc1ccc(OC)cc1)NC(=O)C(O)(CC(C)C)[C@H](O)C(=O)NO (stereo partly shown)
concentration at 10 min [4, 5]: 20000 ng/mL
concentration at 20 min [4, 6]: 0 ng/mL
concentration at 40 min [4, 7]: 4000 ng/mL
concentration at 10 min [4, 8]: 10000 ng/mL
concentration at 20 min [4, 9]: 9000 ng/mL
concentration at 1 h [4, 10]: 9000 ng/mL
concentration at 24 h [4, 11]: 9000 ng/mL

CC(C)C[C@@](O)(C(=O)N[C@@H](Cc1ccc(Cl)cc1)C(=O)NCCC#N)[C@H](C)C(=O)NO [Example 27, N-2(S)[1(S) hydroxycarbamoyl-1 ethyl]-2(S)hydroxy-4-methylpentanoyl L-4-chlorophenylalanine N-(2-cyano-1-ethyl) amide]
IC50 [3]: 1.7 nM

CNC(=O)C(Cc1ccc(Cl)c(Cl)c1)NC(=O)[C@](O)(CC(C)C)[C@H](C)C(=O)NO (stereo partly shown)
concentration at 10 min [4, 8]: 600 ng/mL
concentration at 20 min [4, 9]: 300 ng/mL
concentration at 40 min [4, 12]: 600 ng/mL

CC(C)C[C@@](O)(C(=O)N[C@@H](Cc1ccc(Cl)cc1)C(=O)NCCN1CCOCC1)[C@H](C)C(=O)NO [drawing 116]
blood level, I.p. method, 10′ ([4]; 50 mg/kg i.p.): 87000 ng/mL
blood level, I.p. method, 20′ ([4]; 50 mg/kg i.p.): 13000 ng/mL
blood level, P.o. method, 10′ ([4]; 50 mg/kg p.o.): 5100 ng/mL
blood level, P.o. method, 20′ ([4]; 50 mg/kg p.o.): 3100 ng/mL
blood level, P.o. method, 24 h ([4]; 50 mg/kg p.o.): <300 ng/mL
concentration at 1 h [4, 13]: 1700 ng/mL
concentration at 24 h [4, 14]: 300 ng/mL
concentration at 1 h [4, 10]: 400 ng/mL

CC(C)C[C@@](O)(C(=O)N[C@@H](Cc1ccc(Cl)c(Cl)c1)C(=O)NCCOCCO)[C@H](C)C(=O)NO [drawing 120]
concentration at 10 min [4, 5]: 4500 ng/mL
concentration at 20 min [4, 6]: 7800 ng/mL
concentration at 40 min [4, 7]: 4400 ng/mL
concentration at 10 min [4, 8]: 100 ng/mL
concentration at 20 min [4, 9]: 100 ng/mL

CC(C)C[C@@](O)(C(=O)N[C@@H](Cc1ccc(Cl)cc1)C(=O)NCCN1CCOCC1)[C@H](C)C(=O)NO [drawing 115]
blood level, I.p. method, 10′ ([4]; 50 mg/kg i.p.): 30000 ng/mL
blood level, I.p. method, 20′ ([4]; 50 mg/kg i.p.): 27000 ng/mL
blood level, P.o. method, 10′ ([4]; 50 mg/kg p.o.): 2300 ng/mL
blood level, P.o. method, 20′ ([4]; 50 mg/kg p.o.): 1200 ng/mL
blood level, P.o. method, 24 h ([4]; 50 mg/kg p.o.): 900 ng/mL
concentration at 40 min [4, 7]: 18000 ng/mL

CNC(=O)[C@H](Cc1ccc(OC)cc1)NC(=O)[C@](O)(CC(C)C)[C@H](C)C(=O)NO [drawing 114]
concentration at 10 min [4, 5]: 23000 ng/mL
concentration at 20 min [4, 6]: 8700 ng/mL
concentration at 1 h [4, 13]: 770 ng/mL
concentration at 24 h [4, 14]: < 500 ng/mL
concentration at 10 min [4, 8]: 4200 ng/mL
concentration at 20 min [4, 9]: 2100 ng/mL
concentration at 1 h [4, 10]: 580 ng/mL
concentration at 24 h [4, 11]: < 500 ng/mL

CC(C)C[C@@](O)(C(=O)N[C@@H](Cc1ccc(Cl)c(Cl)c1)C(=O)NCCN1CCOCC1)[C@H](C)C(=O)NO [drawing 119]
blood level, I.p. method, 10′ ([4]; 50 mg/kg i.p.): 6000 ng/mL
blood level, I.p. method, 20′ ([4]; 50 mg/kg i.p.): 5000 ng/mL
blood level, I.p. method, 40′ ([4]; 50 mg/kg i.p.): 1800 ng/mL
blood level, P.o. method, 10′ ([4]; 50 mg/kg p.o.): 1250 ng/mL
blood level, P.o. method, 20′ ([4]; 50 mg/kg p.o.): 800 ng/mL
concentration at 1 h [4, 10]: 450 ng/mL

CC(C)C[C@@](O)(C(=O)NC(Cc1ccc(Cl)cc1)C(=O)NCCN1CCOCC1)[C@H](C)C(=O)NO (stereo partly shown) [Example 12b]
IC50 [2]: 22 nM
IC50 [3]: 8 nM

CC(C)C[C@@](O)(C(=O)N[C@@H](Cc1ccc(Cl)c(Cl)c1)C(=O)NCCN1CCOCC1)[C@H](C)C(=O)NO [drawing 118]
blood level, I.p. method, 10′ ([4]; 50 mg/kg i.p.): 700 ng/mL
blood level, I.p. method, 20′ ([4]; 50 mg/kg i.p.): 500 ng/mL
blood level, I.p. method, 40′ ([4]; 50 mg/kg i.p.): 100 ng/mL
blood level, P.o. method, 10′ ([4]; 50 mg/kg p.o.): 100 ng/mL
blood level, P.o. method, 20′ ([4]; 50 mg/kg p.o.): 100 ng/mL

CNC(=O)[C@@H](NC(=O)C(O)(CC(C)C)[C@H](C)C(=O)NO)C(C)(C)C (stereo partly shown)
concentration at 10 min [4, 5]: 56000 ng/mL
concentration at 20 min [4, 6]: 22000 ng/mL
concentration at 1 h [4, 13]: 3500 ng/mL

CC(C)C[C@@](O)(C(=O)NC(Cc1ccc(Cl)cc1)C(=O)NCCN1CCOCC1)C(C)C(=O)NO (stereo partly shown) [Example 12b]
IC50 [1]: 1.6 µM

CNC(=O)[C@@H](NC(=O)[C@H](CC(C)C)[C@H](O)C(=O)NO)C(C)C
concentration at 10 min [4, 5]: 20000 ng/mL
concentration at 20 min [4, 6]: 9000 ng/mL
concentration at 40 min [4, 7]: 47000 ng/mL
concentration at 10 min [4, 8]: 2200 ng/mL
concentration at 20 min [4, 9]: 4300 ng/mL
concentration at 30 min ([4]; mouse, blood, po, 50 mg/kg, 50 mg/kg p.o., 30′, read-out: blood level, P.o. method, 30′): 300 ng/mL
concentration at 1 h [4, 10]: 500 ng/mL
concentration at 24 h [4, 11]: 170 ng/mL

CNC(=O)[C@H](Cc1ccc(OC)cc1)NC(=O)[C@H](CC(C)C)[C@H](C)C(=O)NO [drawing 113]
concentration at 10 min [4, 5]: 200 ng/mL
concentration at 20 min [4, 6]: < 100 ng/mL
concentration at 40 min [4, 7]: < 100 ng/mL
concentration at 10 min [4, 8]: < 100 ng/mL
concentration at 20 min [4, 9]: < 100 ng/mL
concentration at 40 min [4, 12]: < 100 ng/mL

N-2-(S)[(S)-hydroxy-(S)hydroxycarbamoylmethyl)-2(S)-hydroxy-4-methyl]pentanoyl-o-methyl-3-methyl-(S) valine N-methylamide [Example 34]
IC50 [3]: 34 nM
